Source: patent publication US20230330093A1, “APPLICATION OF NITROGEN-CONTAINING SATURATED HETEROCYCLIC COMPOUND” (SHANGHAI PHARMACEUTICALS HOLDING CO., LTD., priority 2020, published 2023)
Where “and” joins values, the source holds several entries; their conditions need not be identical. Identical values can stand only once.

Tested on: rhesus monkeys with spontaneous chronic kidney disease
Experiment: Effect on serum K+, 8-week administration
Details: 5mg/kg (n = 6)
Method: In the trial, animals were brought in three stages. In the first stage, there were two groups: 3 animals (No. 257, No. 4721, No. 287) in a group with 5 mg/kg of the malate of compound of formula I, and 2 animals (No. 1029, No. 4713) in the placebo group. […] In the third stage, there were two groups: 5 animals (No. 4829, No. 6501, No. 287, No. 4721, No. 2091) in a group with 2 mg/kg of the malate of compound of formula I, and 5 animals (No. 1567, No. 4861, No. 5453, No. 6653, No. 5073) in a group with 1 mg/kg of the malate of compound of formula I.
Serum potassium, twice before administration, once every 2 weeks during the administration period;
Blood biochemical and urine index detection equipment: Roche cobas6000 analyzer series C501 module detection. ELISA kit was used for NT-proBNP test.

In the case of COC(=O)NCCCn1nc(C(C)N(C(=O)C2CNCCO2)C2CC2)c2ccc(C)nc21.O=C(O)CC(O)C(=O)O (stereo not drawn) [malate of compound of Formula 1], the “K^+” value (2 weeks, Mean ± SD) is reported as 4.98 ± 0.73 mmol/L, the “K^+” value (2 weeks, individual animals) is reported as 4.91 mmol/L and 4.55 mmol/L and 6.07 mmol/L and 5.37 mmol/L and 5.05 mmol/L and 3.93 mmol/L and the “K^+” value (4 weeks, Mean ± SD) is reported as 4.49 ± 0.62 mmol/L. The “K^+” value (4 weeks, individual animals) was 4.33 mmol/L and 4.55 mmol/L and 5.46 mmol/L and 4.50 mmol/L and 4.61 mmol/L and 3.51 mmol/L, the “K^+” value (6 weeks, Mean ± SD) was 4.57 ± 0.66 mmol/L and the “K^+” value (6 weeks, individual animals) was 4.53 mmol/L and 4.16 mmol/L and 4.77 mmol/L and 4.76 mmol/L and 5.58 mmol/L and 3.60 mmol/L. The “K^+” value (8 weeks, Mean ± SD) was 4.49 ± 0.70 mmol/L, the “K^+” value (8 weeks, individual animals) was 4.26 mmol/L and 4.64 mmol/L and 4.49 mmol/L and 5.28 mmol/L and 5.00 mmol/L and 3.26 mmol/L and the “K^+” value (Baseline 1, Mean ± SD) was 4.89 ± 0.35 mmol/L. For the same compound, the “K^+” value (Baseline 1, individual animals) was 4.78 mmol/L and 4.54 mmol/L and 4.93 mmol/L and 5.41 mmol/L and 5.16 mmol/L and 4.52 mmol/L, the “K^+” value (Baseline 2, Mean ± SD) was 4.81 ± 0.48 mmol/L and the “K^+” value (Baseline 2, individual animals) was 5.43 mmol/L and 4.74 mmol/L and 4.03 mmol/L and 5.20 mmol/L and 4.75 mmol/L and 4.72 mmol/L.
